Measurements from US20110237606A1, “3-Deazaneplanocin Derivatives” (AGENCY OF SCIENCE, TECHNOLOGY AND RESEARCH, priority 2008, published 2011).
Where a name gives a salt, the structure may show the parent alone.

How the values were obtained:
[1] = test system: HCT115 ER-E2F1 cells; test: E2F1-induced apoptosis assay (ER-E2F1 activated by 4-OHT), FACS subG1; assay type: cell-based
Source text: Two assays were used to measure the compound's activity in induce apoptosis. The first assay measures the activity of compound to activate E2F1-induced apoptosis. In this assay, transcription factor E2F1 was engineered with ER receptor ligand binding domain. Addition of 4-OHT will be able to activate ER-E2F1 complex activity.
Fluorescence activated cell sorting (FACS) also known as flow cytometry is the technique used to determine apoptosis in this set of experiments. Apoptosis is indicated by cell populations with DNA content in the subG1 range. To determine the activity of these compounds, the inventors used HCT115 ER-E2F1 cells to determine the activity of the compound in inducing E2F1-dependent apoptosis. In this assay, addition of 4-OHT ligand will activate E2F1. DZNep has been show previously to activate OHT-induced apoptosis in this system.

[2] = test system: HCT-116 colorectal carcinoma xenograft; test: In vivo efficacy in mouse HCT-116 colorectal carcinoma xenograft model
Experimental: The in vivo efficacy and toxicity of D3 was evaluated in a mouse HCT-116 colorectal carcinoma xenograft model.
Female athymic BALB/c nude mice (ARC, West Australia), 18-20 weeks of age, are fed with sterilized tap water (ad libitum water) and irradiated standard rodent diet consisting of: 19% protein, 5% fat, and 5% fiber. Mice are housed in individual ventilated cages on 12-hour light cycle at 21-22° C. and 40-60% humidity. Biological Resource Centre, Biopolis (BRC) complies with the recommendations of the guide for care and use of Laboratory Animals with respect to restraint, husbandry, surgical procedures, feed and fluid regulation, and veterinary care. The animal cares and use program (#070276) at BRC was Institutional Animal Care and Use Committee (IACUC) accredited.
D3 was provided in powder form, dissolved in 10% DMSO in sterile 1×PBS and stored in −20° C. Every mouse will receive a dose of 30-60 mg per kilogram body weight by intraperitoneal injection (ip).
Mice were implanted subcutaneously in the left flank with 5×10^6 cells of HCT-116 parental human colon carcinoma. The tumors were allowed to grow for 8 days and thereafter monitored every 2-3 days by caliper.
On the day 1, nude mice were divided into 2 groups according to tumor volume to ensure tumor volume evenly distributed into each group. Each group comprised 7 animals. Drug treatment was initiated on day 1. D3 is administered ip at doses of 30 mg/kg for 7 days followed by 60 mg/kg for another 5 days on once-a-day basis. Another group of mice received receive only vehicle by ip route. […] The study was terminated on Day 14.
Estimated tumor volume was calculated using the formula:
Tumor volume (mm^3)=(w^2×l)/2
where w=width and l=length in mm of an HCT-116 carcinoma.
Compound efficacy was assessed by the tumor growth inhibition (TGI) method in which tumor volume of treatment groups are compared to the vehicle controls. The percent tumor growth inhibition (% TGI) is calculated as follows:
% TGI=[…]×100
where: • Cday 1=median tumor volume for the control group (vehicle) on day 1 • Cday a=median tumor volume for the control group (vehicle) on day a • Tday a=median tumor volume for a treatment group on day a Animals classified as NTRD (non-treatment-related deaths) were excluded from TGI calculations.
The two sample t-test was used to determine the statistical significance of body weight changes and tumor volumes between groups. Statistical analyses were conducted at a p level of 0.05. SPSS was used for all statistical analyses and graphic presentations.

[3] = Maximum tolerated dose in vivo; conditions: compared to DZNep

In the case of `COCC1=C[C@@H](n2cnc3c(N)ncnc32)[C@H](O)[C@@H]1O` [Compound 25, (1S,2R,5R)-5-(6-amino-9H-purin-9-yl)-3-(methoxymethyl)cyclopent-3-ene-1,2-diol hydrochloride], the “ability to cause apoptosis in the induction of E2F1-dependent apoptosis” value ([1]; compared with DZNep) is reported as “as effectively as DZNep”, the “E2F1 Induced apoptosis (+4-OHT) % Apoptosis” value ([1]; with 4-OHT (value in parentheses)) is reported as 60% and the “tumor volume versus vehicle group” value ([2]; D3 ip 30 mg/kg 7 days then 60 mg/kg 5 days, p=0.033) is reported as “statistically significantly smaller”. For the same compound, the tumor growth inhibition ([2]; D3 ip 30 then 60 mg/kg, day 7) was “about 49%”, the tumor growth inhibition ([2]; D3 ip 30 then 60 mg/kg, day 9) was roughly 56% and the tumor growth inhibition ([2]; D3 ip 30 then 60 mg/kg, day 12) was roughly 54%. The tumor growth inhibition ([2]; D3 ip 30 then 60 mg/kg, end point day 14) was roughly 54% and the “maximum tolerated dose (MTD)” value [3] was “higher”.
In the case of `Nc1ncnc2c1ncn2[C@@H]1CC[C@@H](O)[C@H]1O` [Compound I3, (1R,2S,3R)-3-(6-amino-9H-purin-9-yl)cyclopentane-1,2-diol], the tumor growth inhibition ([2]; I3 30 mg/kg, day 6) is reported as “about 40%”, the tumor growth inhibition ([2]; I3 30 mg/kg, day 8) is reported as roughly 43% and the tumor growth inhibition ([2]; I3 30 mg/kg, day 10) is reported as roughly 31%. The tumor growth inhibition ([2]; I3 30 mg/kg, day 13) was roughly 35%, the tumor growth inhibition ([2]; I3 30 mg/kg, end point day 14) was roughly 34% and the “tumor volume versus vehicle group” value ([2]; I3 30 mg/kg, p=0.037) was “statistically significantly smaller”. The “tumor volume versus vehicle group” value ([2]; I3 60 mg/kg, p=0.000) was “statistically significantly smaller”, the tumor growth inhibition ([2]; I3 60-80 mg/kg, day 6) was “about 50%” and the tumor growth inhibition ([2]; I3 60-80 mg/kg, day 8) was roughly 65%. For the same compound, the tumor growth inhibition ([2]; I3 60-80 mg/kg, day 10) was roughly 60%, the tumor growth inhibition ([2]; I3 60-80 mg/kg, day 13) was roughly 68% and the tumor growth inhibition ([2]; I3 60-80 mg/kg, end point day 14) was roughly 63%.
